Measured values as given in article doi:10.1101/2025.02.19.639194v1, “Bioinformatics analysis identifies sequence determinants of enzymatic activity for the PHARC associated lipase ABHD12” (biorxiv, 2025).

Biological target: T1, CG15111 (Drosophila melanogaster, UniProt A1ZBH2)
T1 construct: gene Dmel\CG15111; full-length from adult fly cDNA, C-terminal FLAG tag, pRmHa3 vector, membrane fraction of transfected S2 cells
T1 sequence (A1ZBH2 1-393): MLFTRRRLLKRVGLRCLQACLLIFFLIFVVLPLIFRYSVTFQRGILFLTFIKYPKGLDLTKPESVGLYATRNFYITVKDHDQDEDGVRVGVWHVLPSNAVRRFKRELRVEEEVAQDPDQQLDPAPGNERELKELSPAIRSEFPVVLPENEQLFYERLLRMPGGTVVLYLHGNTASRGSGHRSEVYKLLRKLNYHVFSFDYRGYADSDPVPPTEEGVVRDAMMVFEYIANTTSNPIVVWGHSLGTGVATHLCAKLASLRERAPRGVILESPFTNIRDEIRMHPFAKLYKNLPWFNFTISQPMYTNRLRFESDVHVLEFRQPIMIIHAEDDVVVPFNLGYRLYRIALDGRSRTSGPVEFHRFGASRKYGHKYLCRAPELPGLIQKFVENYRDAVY
Assay: LC-MS lyso-PS lipase assay, release of C17:[…] FFA
Format: biochemical
Conditions: 100 uM substrate, 20 ug membrane fraction of S2 cells

**Q.** With CCCCCC/C=C\CCCCCCCCC(=O)OC[C@@H](O)COP(=O)(O)OC[C@H](N)C(=O)O [C17:1 lyso-PS] as the compound, how does the “LC-MS lyso-PS lipase assay, release of C17:1 FFA” value read?
**A.** The value was “WT CG15111 had robust lyso-PS lipase activity”.
